Measurements from patent US8933031B2, “Polypeptide inhibiting angiogenesis and application thereof” (Shanghai First People's Hospital, priority 2008, dated 2015).

Tests used:
[1] = system: chick embryo chorioallantoic membrane; type: in vivo; conditions: 10 μg or 50 μg AU6 on filter paper, 2 days, vs PBS control group
Description: 1.2 Preparation of Model and Intervention Test: The chick fertile eggs of 1-2 days old were randomly grouped into 3 groups, which were respectively a control group, a 10 μg AU6 intervention group, and a 50 μg AU6 intervention group, with 9-15 eggs for each group. The surface of the fertile eggs was cleansing with tap water, and then the eggs were soaked in 0.2% benzalkonium bromide (bromo-geramine) solution for 5-10 minutes. The eggs were placed with the blunt end upward, and hatched in an incubator under 37° C. and 60-70% humidity. The eggs were overturned for at least two times per day, and were hatched for 5 days with 24 hours as one day. Under sterile condition, a small hole of about 1-2cm^2 was created at the blunt end (air chamber end) with a nipper. […] Whatman filter papers with a diameter of 5mm were used as a sample carrier, each of which adsorbed 5 μl of PBS solution containing 0 μg, 10 μg or 50 μg of AU6. After air drying, the papers were placed into the center of the chorioallantoic membrane. […]
1.3 Counting the Number of Micrangiums in the Chorioallantoic Membrane: the adhesive tape was removed, and the micrangiums newly generated on the chorioallantoic membrane were observed. The number of micrangiums (with diameter no greater than 10 μm) within 5 mm around the filter paper for each group was counted under stereomicroscope. […]

[2] = system: corneal angiogenesis induced by VEGF; type: in vivo
Source text: 1.2 Experimental Animal and Material: Healthy, male C57B1/6 mice of 5-6 weeks old weighing about 20 g were purchased from Laboratory Animal Center of Chinese Academy of Sciences. Sucrose octasulfate-aluminum complex was purchased from Sigma-Aldrich, USA. PolyHEMA (poly(2-hydroxyethylmethacylate)) was purchased from Aldrich, USA. And human recombinant VEGF165 was purchased from SIGMA, USA.
1.2 Preparation of Model and Intervention Test: 12% PolyHEMA in an ethanol solution was mixed with an equal volume of normal saline solution containing sucrose octasulfate-aluminum complex powder, thus forming blank slow-release particles with a volume of 0.35 mm*0.35 mm*0.20 mm. 160 ng of VEGF and different amounts (0 μg, 1.0 μg, 2.0 μg) of the small peptides were added into said particles. The resultant products were stored at −20° C., ready for use. The above operations were done under a sterile condition. Thirty C57B1/6 mice (30 eyes) were randomly grouped into a control group (VEGF group), VEGF+1.0 μg AU6 group, and VEGF+2.0 μg AU6 group, with 10 eyes for each group. Under a sterile condition, 23G syringe needle was used to perform blunt separation between the layers of the corneal stroma in the experimental eyes, so as to form a pouch of 0.5 mm*0.5 mm. The particles containing 160 ng VEGF and different amounts of small peptides were implanted into the pouches in the ocular cornea in the mice of each group, and were made to have a distance of 0.6-0.8 mm from limbus. After operation, 0.5% aureomycin oculentum was applied to the eyes to prevent infection and reduce irritation. Photos were obtained 7 days after operation to observe the growth of newly generated blood vessel in the cornea, and a histopathological examination was performed concurrently.
1.3 Quantitative Measurement of Corneal Neovascularization: the length of the new blood vessels grown from limbus was measured 7 days after operation. The area of the new blood vessel was calculated based on the longest blood vessel which had less continuous bending and which grew toward the slow release particles. Formula is as follows: Area (mm^2)=[…]*π*VL (mm)*CN*0.4 (mm), wherein VL is the length of the longest new blood vessel grown from limbus to the cornea (maximal vessel length), and CN represents the clock hours of corneal neovascularization (the cornea is dividing into clock hours).
1.4 Qualitative Observation of Corneal Neovascularization: Each group of animals was sacrificed by excessive anaesthesia 7 days after operation. The eyeballs were obtained under a sterile condition, and fixed in 10% neutral formaldehyde, and then subjected to histopathological examination. The samples were embedded within paraffin and cut into 3 μm sections, HE stained, and observed under light microscope.
1.5 Statistical Analysis: The experimental data were represented as x±s. The length of the longest new blood vessel in cornea, clock hours and area for each group were compared by one-way ANOVA. P<0.05 indicates statistical significance.

[3] = system: retinal neovascularization induced by anoxia; type: in vivo; conditions: intravitreal AU6 (5 μg, 10 μg) 12 days after birth, read 17 days after birth, vs model-treated group
Description: 1.1 Materials and Main Devices: Healthy, neonatal C57B1/6 mice, 7 days age, weighing about 4 g were purchased from Laboratory Animal Center of Chinese Academy of Sciences. The sex of the mice was not limited. FITC-dextran (molecular weight about 2*10^6) was purchased from SIGMA, USA.
1.2 Preparation of Model and Intervention Test: Neonatal mice of 10 nests were randomly grouped into 5 groups, which respectively were oxygen group, oxygen plus PBS group, oxygen plus 5 μg AU6 group, oxygen plus 10 μg AU6 group, and control group, with 10-11 mice for each group. Seven days after birth, except the control group, all of the other groups of mice were placed in an airproof drying cabinet together with their mother mice of the same nest. Wet pure oxygen was introduced into the drying cabinet, and the oxygen concentration in volume was maintained as 75%±5%. The oxygen concentration was measured every 3-6 hours by using oxygen meter. The control group was incubated normally in air. Twelve days after birth, 0.5 μl PBS solution containing respectively 0, 5 μg, and 10 μg AU6 were injected into the vitreous chambers of the mice in the oxygen plus PBS group and in the oxygen plus AU6 group (5 μg, and 10 μg).
1.3 FITC-dextran Retinal Angiography and Flat-mounts: Seventeen days after birth, 50 mg/ml FITC-dextran solution were perfused into the left ventricle of mice in each group. Then the eyeballs immediately were obtained, fixed in paraformaldehyde solution for 5-24 hours at 4° C. And then the retinas were isolated and flat-mounted. The morphological change of the retinal blood vessel was observed under fluorescence microscope.
1.4 Quantitative Measurement of Retinal Neovascularization: The animals in each group were sacrificed by excessive anaesthesia 17 days after birth. The eyeballs were obtained, and fixed in 10% neutral formaldehyde, and then subjected to histopathological examination. […] The numbers of the nucleus of the vascular endothelial cells which broke through the retinal inner limiting membrane were counted under light microscope. […]

[4] = Water solubility of synthesized polypeptide; type: physicochemical; conditions: white powder
[5] = 160 ng VEGF + 1.0 or 2.0 μg AU6 slow-release particles, 7 days after operation, vs control group
[6] = 7 days after operation, AU6 intervention group

YRGKKA ((1)..(6) Peptide AU6 for inhibiting angiogenesis)
numbers of micrangiums within 5 mm around the filter paper [1]: significantly less | clock hours of corneal neovascularization [2, 5]: significant decrease | longest blood vessel length of the new blood vessel [2, 5]: significant decrease | area of blood vessel ([2]; 160 ng VEGF + 1.0 or 2.0 μg AU6 slow-release particles, 7 days after operation, vs control group, calculated from VL and CN): significant decrease | blood capillary lumens in corneal stroma (HE stained sections) [2, 6]: very few | oedema in the corneal tissue (HE stained sections) [2, 6]: no obvious oedema | toxicity to each layer of corneal tissues ([2]; mouse, in vivo): not observed | neovascular clusters (FITC-dextran retinal flat-mounts) [3]: reduced | non-perfusion area (FITC-dextran retinal flat-mounts) [3]: narrowed | nucleus of vascular endothelial cells which broke through the inner limiting membrane [3]: obviously less | water solubility [4]: good
